According to paper PMC7347206, “Characterization of a long-term mouse primary liver 3D tissue model recapitulating innate-immune responses and drug-induced liver toxicity” (PLoS ONE, 2020):
Read-outs that look alike come from different tables or passages of the source.

Columns and labels:
[1] = system: mouse primary hepatocyte 3D liver spheroids; assay: cells; details: for IC50: Mus musculus, Hepatocyte; for MOS [3D in vitro IC50 / Human Cmax] 48 h / MOS [3D in vitro IC50 / Human Cmax] 8 days: C57BL/6, mouse
Protocol: To avoid increased evaporation, a humidified lid (Labcyte, USA), filled with PBS, was placed on each plate. […] From day 4 on, 50% of the medium was replaced daily with serum-free maintenance medium (WME with Cell Maintenance Supplement Pack (Thermo Fisher Scientific, USA)).
Compounds were obtained from Sigma-Aldrich if not otherwise stated. […] Toxicity treatment started on day 7 with re-dosing every second day. On the first day of exposure, 50 μl of the cell culture media was removed and 50 μl of fresh cell culture media containing the compound solution was added to the well to achieve the desired concentration. For redosing, 50 μl of cell culture media was replaced with fresh compound-containing cell culture media. […] The dose-response curves were plotted, and IC50 values were calculated using Graph-Pad Prism.
Drug-induced liver injury (DILI) is a major concern in drug development, which often cannot be predicted in vitro due to inherent limitations of 2D hepatocyte cultures, including short-term viability and decreased functionality. […] The spheroids either experienced a single treatment and were analyzed after 48 hours (Fig 3A–3G, 48 h), or they were repeatedly treated every 2 days and analyzed at day 8 (Fig 3A–3G, 8 days). In both cases, ATP content was used as a viability marker.

[2] = read-out: Mouse Cmax; reported mouse in vivo maximal plasma concentration; 41 (one per compound, as in cell); cited from earlier work
[3] = read-out: Human Cmax; reported human in vivo Cmax; 48 (one per compound, as in cell); cited from earlier work
[4] = system: liver coculture spheroids; assay: Cytotoxicity by LDH release or ATP content in the cholestasis study; details: all treatment conditions (1.25, 2.5, 10 μM), 24 h
[5] = system: bile-salt-export pump (BSEP); assay: Drug-induced cholestasis: BSEP gene expression (qRT-PCR) in coculture spheroids; details: 24 h
[6] = system: TNFα; assay: Crosstalk of parenchymal and non-parenchymal cells: TNFα mRNA in coculture spheroids; assay type: cell-based, mouse; details: addition of 50 μM Dexamethasone to LPS; as compared to IL-6
Protocol: (§1) Cytochrome P450 (Cyp450), as well as IL-6 and TNFα gene expression was measured by qRT-PCR.
(§2) Drug-induced liver injuries can be caused by several modes of action, including perturbations of biochemical pathways caused by the interaction of parenchymal and non-parenchymal cells. These complex and dynamic cellular interactions can only be represented in vivo or in coculture models, which include the parenchymal and non-parenchymal cells.

[7] = system: IL-6; assay: Crosstalk of parenchymal and non-parenchymal cells: IL-6 mRNA in coculture spheroids; assay type: cell-based, mouse
Protocol: as §1, §2

[8] = system: Cyp3a; assay: Cyp3a inhibition, P450-Glo activity assay in non-induced spheroids; details: 10 μM Ketoconazole
[9] = system: Cyp3a11; assay: Cyp450 induction on mRNA level (qRT-PCR) in liver spheroids; assay type: in vitro ADME, mouse; details: PCN 50 μM, Pb 100 μM
Protocol: (§3) To analyze the metabolic capacity, spheroids were incubated with different Cyp inducers for 72 hours, starting 7 days or 14 days post seeding and analyzed by qRT-PCR. […] PCN and βNF were dissolved in DMSO as a 1000x stock solution, Pb was dissolved directly in the cell culture media.
(§4) For the biotransformation of endogenous compounds and xenobiotics including drugs, liver cytochromes P450 (Cyp450) play a critical role as they convert substances into more polar products to facilitate the elimination from the body. The major drug-metabolizing Cyp450 in mouse include Cyp1a1, Cyp1a2, Cyp2b10, and Cyp3a11 [34]. To assess their metabolic capacity, spheroids were incubated with well-known Cyp450 inducers for […] and analyzed for Cyp450 induction on RNA level on day 10 and day 17 (Figs 2C and S4). […] Additionally, spheroids were incubated with Phenobarbital (Pb), a known Cyp2b10 and Cyp3a11 inducer.

[10] = system: Cyp2b10; assay: as above; assay type: in vitro ADME, mouse; details: 100 μM Pb
Protocol: as §3, §4

[11] = system: Cyp3a11; set-up: method as in PMID 22466549; details: mouse in vivo; cited from earlier work
[12] = system: Cyp1a2; assay: Cyp450 induction on mRNA level (qRT-PCR) in liver spheroids; assay type: in vitro ADME, mouse; details: 15 μM βNF
Protocol: as §3, §4

[13] = system: Cyp1a1; assay: as above; assay type: in vitro ADME, mouse; details: 15 μM βNF
Protocol: as §3, §4

[14] = system: Cyp3a11; assay: Crosstalk of parenchymal and non-parenchymal cells: Cyp3a11 mRNA in coculture spheroids ± LPS; details: LPS alone, 10 μg/ml, 48 h
Protocol: as §1, §2

[15] = system: IL-6 release of Kupffer cells and liver sinusoidal endothelial cells; assay: LPS-induced IL-6 release (ELISA) from liver spheroids; assay type: cell-based, mouse; details: LPS for 72 hours, 14 days after production
Protocol: (§5) The activation potential of Kupffer cells and liver sinusoidal endothelial cells was measured by assessing the lipopolysaccharide (LPS)-induced interleukin 6 (IL-6) release. […] was added, and the supernatant was collected after […]. IL-6 concentrations were measured by ELISA (BioLegend, USA). For stellate-cell activation, spheroids were treated with different concentrations of transforming growth factor beta TGFβ (Bio-Techne AG, Switzerland) for 72 hours. Induction of smooth-muscle-α-actin (Acta2) gene expression was measured via quantitative real-time polymerase chain reaction (qRT-PCR), described in the section “gene expression analysis”. For the induction of the major histocompatibility complex class II (MHCII) on LSECs, spheroids were treated with 100 ng ml^-1 tumor-necrosis factor alpha (TNFα; Sigma-Aldrich, Switzerland) for 48 h. H2-Ab1 gene expression was measured via qRT-PCR.
(§6) NPCs are activated upon detection of endotoxins, such as lipopolysaccharides (LPS), which leads to the secretion of certain cytokines by NPCs. To assess the functionality and activation potential of NPCs, monoculture and coculture spheroids were treated with LPS for 72 hours and analyzed for interleukin 6 (IL-6) release (Fig 4C). […] Stellate cells are quiescent in a normal liver but can be activated upon liver damage and are responsible for scar-tissue formation. […]

[16] = system: Acta2 (alpha smooth muscle actin); assay: Stellate-cell activation: Acta2 gene expression (qRT-PCR) in coculture spheroids; assay type: cell-based, mouse; details: 72 h
Protocol: as §5
NPCs are activated upon detection of endotoxins, such as lipopolysaccharides (LPS), which leads to the secretion of certain cytokines by NPCs. To assess the functionality and activation potential of NPCs, monoculture and coculture spheroids were treated with LPS for 72 hours and analyzed for interleukin 6 (IL-6) release (Fig 4C). […] Stellate cells are quiescent in a normal liver but can be activated upon liver damage and are responsible for scar-tissue formation. Stimulation with transforming growth factor beta (TGFβ), triggered a dose-dependent induction of Acta2 (alpha smooth muscle actin, αSMA), which is an activation marker for stellate cells (Fig 4D). Low concentrations of TGFβ increased Acta2 induction by 3.5 fold, whereas higher concentrations induced gene expression by 4.7-fold and 8-fold, respectively. The functional characterization of liver sinusoidal endothelial cells was performed by induction of the major histocompatibility complex II (MHC-II), which is constitutively expressed in LSECs but can be further increased by exposure to pro-inflammatory cytokines, such as tumor necrosis factor alpha (TNFα).

[17] = system: H2-Ab1 (MHC-II); assay: MHC-II induction on LSECs: H2-Ab1 gene expression (qRT-PCR) in coculture spheroids; assay type: cell-based, mouse; details: 100 ng ml^-1 TNFα, 48 h
Protocol: as §5, §6

[18] = read-out: 3D in vitro IC50 8 days
[19] = read-out: 3D in vitro IC50 48 h

## CC(=O)Nc1ccc(O)cc1 [Acetaminophen]
[1]; [18]
  IC50: 2750 µM
[2]
  Cmax: 2220 µM
[3]
  Cmax: 136 µM

## O=C1CC2(CCCC2)CC(=O)N1CCCCN1CCN(c2ncccn2)CC1 [Buspirone]
[1]
  MOS [3D in vitro IC50 / Human Cmax] 48 h: 49189
  MOS [3D in vitro IC50 / Human Cmax] 8 days: 20489
[1]; [19]
  IC50: 443 µM
[1]; [18]
  IC50: 184 µM
[1]; mouse
  hepatotoxicity class by IC50/Cmax (MOS): non-DILI compounds
[3]
  Cmax: 0.009 µM

## CN(C)CCCN1c2ccccc2Sc2ccc(Cl)cc21 [CPZ, Chlorpromazine]
[4]
  cytotoxicity by LDH or ATP: no cytotoxicity
[5]; high concentrations of CPZ
  inhibition of BSEP expression: 96%
[5]; low concentrations of CPZ
  inhibition of BSEP expression: up to 87%

## O=P1(N(CCCl)CCCl)NCCCO1 (stereo not shown) [Cyclophosphamide]
[1]; [19]
  IC50: 197 µM
[1]; [18]
  IC50: 13.3 µM
[1]; after 48 hours (short-term exposure), cut-off 100
  hepatotoxicity class by IC50/Cmax (MOS): hepatotoxic agents
[2]
  Cmax: 77 µM
[3]
  Cmax: 96 µM

## C[C@@H]1C[C@H]2[C@@H]3CCC4=CC(=O)C=C[C@]4(C)[C@@]3(F)[C@@H](O)C[C@]2(C)[C@@]1(O)C(=O)CO [Dexamethasone]
[6]
  effect on LPS-induced TNFα gene expression: only moderate reduction
[7]; co-administration of 50 μM Dexamethasone with LPS
  reduction of LPS-induced IL-6 mRNA induction: ~ 50%

## O=C(O)Cc1ccccc1Nc1c(Cl)cccc1Cl [Diclofenac]
[1]; [19]
  IC50: 294 µM
[1]; [18]
  IC50: 29.7 µM
[2]
  Cmax: 10 µM
[3]
  Cmax: 9.43 µM

## CC(=O)N1CCN(c2ccc(OCC3COC(Cn4ccnc4)(c4ccc(Cl)cc4Cl)O3)cc2)CC1 (stereo not shown) [Ketoconazole]
[8]
  downregulation of Cyp3a activity: 60%

## CN(Cc1cnc2nc(N)nc(N)c2n1)c1ccc(C(=O)N[C@@H](CCC(=O)O)C(=O)O)cc1 [Methotrexate]
[1]
  reduction in cell viability after a single dosage: only a slight reduction in cell viability
  MOS [3D in vitro IC50 / Human Cmax] 48 h: 84’231
  MOS [3D in vitro IC50 / Human Cmax] 8 days: 44.64
[1]; [18]
  IC50: 207 µM
[1]; mouse
  hepatotoxicity class by IC50/Cmax (MOS): assigned to the correct class
[2]
  Cmax: 43 µM

## CCC1(c2ccccc2)C(=O)NC(=O)NC1=O [Phenobarbital]
[9]; day 10 (treated day 7-10)
  Cyp3a11 mRNA induction compared to the vehicle control: 6.2 fold
[9]; day 17 (treated day 14-17)
  Cyp3a11 mRNA induction compared to the vehicle control: 3.9 fold
[10]; day 10
  Cyp2b10 mRNA induction: 1.9 fold
[10]; day 17
  Cyp2b10 mRNA induction: 2.4 fold

## CC(=O)[C@H]1[C@H](C#N)C[C@H]2[C@@H]3CC=C4C[C@@H](O)CC[C@]4(C)[C@H]3CC[C@@]21C [Pregnenolone 16α-carbonitrile]
[11]
  reduced expression of Cyp3a11 mRNA when administered together with LPS: 25%
[9]; day 10 (treated day 7-10)
  Cyp3a11 mRNA induction compared to the vehicle control: 20 fold
[9]; day 17 (treated day 14-17)
  Cyp3a11 mRNA induction compared to the vehicle control: 59 fold

## CC(C)NCC(O)COc1cccc2ccccc12 (stereo not shown) [Propranolol]
[3]
  Cmax: 0.2 µM

## CN(C)[C@@H]1C(O)=C(C(N)=O)C(=O)[C@@]2(O)C(O)=C3C(=O)c4c(O)cccc4[C@@](C)(O)[C@H]3C[C@@H]12 [Tetracycline]
[1]; [19]
  IC50: 436 µM
[1]; [18]
  IC50: 39.7 µM
[2]
  Cmax: 11 µM
[3]
  Cmax: 21 µM

## Cc1c(C)c2c(c(C)c1O)CCC(C)(COc1ccc(CC3SC(=O)NC3=O)cc1)O2 (stereo not shown) [Troglitazone]
[4]
  cytotoxicity by LDH or ATP: no cytotoxicity
[5]; 1.25 μM
  inhibition of BSEP expression: 10%
[5]; 2.5 μM
  inhibition of BSEP expression: 40%
[5]; 10 μM
  inhibition of BSEP expression: 89%

## O=c1cc(-c2ccccc2)oc2ccc3ccccc3c12 [β-naphthoflavone]
[12]; day 10
  Cyp1a2 mRNA induction: 157 fold
[12]; day 17
  Cyp1a2 mRNA induction: 59 fold
[13]; day 10
  Cyp1a1 mRNA induction: 90 fold
[13]; day 17
  Cyp1a1 mRNA induction: 103 fold

## lipopolysaccharide [LPS]
[14]
  Cyp3a11 mRNA induction: did not lead to Cyp3a11 mRNA induction
[15]; coculture spheroids
  IL-6 release: 65 ± 11 pg/mL
[15]; monoculture spheroids
  IL-6 release: 2 pg/mL
[7]; LPS alone, 10 μg/ml, 48 h, coculture spheroids
  IL-6 mRNA expression increase: 6 fold

## transforming growth factor beta [TGFβ]
[16]; higher concentration of TGFβ (first of two)
  Acta2 induction: 4.7 fold
[16]; higher concentration of TGFβ (second of two)
  Acta2 induction: 8 fold
[16]; low concentrations of TGFβ
  Acta2 induction: 3.5 fold

## tumor-necrosis factor alpha [TNFα]
[17]
  increase of mRNA expression of MHC-II (H2-Ab1): 2.3 fold
